The values that follow come from patent publication US12391686B2, “Compounds and uses thereof” (Foghorn Therapeutics Inc., priority 2019, dated 2025).

A value given as a limit tells only on which side of the number the result lay.

For assay [1], the target named is T1, BRD9 bromodomain (Flag-BRD9 P133-K239; Swiss Prot Q9H8M2) (Homo sapiens, UniProt Q9H8M2).
T1 construct: His-Flag-BRD9 (P133-K239); Swiss Prot Q9H8M2; His6 with TEV site (mgsshhhhhhenlyfq/) (N, cleaved yes); made in house
T1 sequence (Q9H8M2 133-239): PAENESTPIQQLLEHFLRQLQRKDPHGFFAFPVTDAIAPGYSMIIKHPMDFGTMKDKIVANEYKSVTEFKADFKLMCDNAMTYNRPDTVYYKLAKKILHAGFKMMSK
The assay is described as follows: BRD9 Bromodomain TR-FRET Competition Binding Assay. The following applies: competition with biotinylated BRD9 ligand; 90 minutes at room temperature. On the procedure:
Procedure: His-Flag-BRD9 (P133-K239; Swiss Prot Q9H8M2; SEQ ID NO:1 mgsshhhhhhenlyfq/gdykddddkgslevlfqg/[…] […]) was cloned, expressed, purified, and then treated with TEV protease. Cleaved His tag was removed by purification. The binding of a biotinylated small molecule ligand of BRD9 was assessed via the LANCE® TR-FRET platform (PerkinElmer), and the compounds were assayed for inhibitory activity against this interaction.
Results: A mixture of biotinylated-ligand and SureLight™ Allophycocyanin-Streptavidin (APC-SA, PerkinElmer AD0201) in 50 mM HEPES (pH 7.4), 50 mM NaCl, 1 mM TCEP (pH 7), 0.01% (v/v) Tween-20, 0.01% (w/v) bovine serum albumin was added to a white 384-well PerkinElmer Proxiplate Plus plate. DMSO or 3-fold serially diluted compounds were then added to the Proxiplate followed by addition of Flag-BRD9. After a 10-minute incubation at room temperature, Eu-W1024 anti-FLAG (PerkinElmer, AD0273) was added. The final reaction mixture that contained 3.75 nM biotinylated ligand, 3 nM Flag-BRD9, 7.5 nM SureLight™ Allophycocyanin-Streptavidin, and 0.2 nM Eu-W1024 anti-FLAG was incubated at room temperature for 90 minutes.
The plates were then read on a PerkinElmer Envision plate reader to determine the ratio of emission at 665 nm over 615 nm. […]

Assay [2] concerns the target T2, Nanoluciferase-BRD9 fusion protein (3×FLAG-NLuc-BRD9) in SYO-1 cells (Homo sapiens, UniProt Q9H8M2).
T2 construct: expressed in transfected cells; host or cells: SYO-1
T2 sequence (Q9H8M2 1-597): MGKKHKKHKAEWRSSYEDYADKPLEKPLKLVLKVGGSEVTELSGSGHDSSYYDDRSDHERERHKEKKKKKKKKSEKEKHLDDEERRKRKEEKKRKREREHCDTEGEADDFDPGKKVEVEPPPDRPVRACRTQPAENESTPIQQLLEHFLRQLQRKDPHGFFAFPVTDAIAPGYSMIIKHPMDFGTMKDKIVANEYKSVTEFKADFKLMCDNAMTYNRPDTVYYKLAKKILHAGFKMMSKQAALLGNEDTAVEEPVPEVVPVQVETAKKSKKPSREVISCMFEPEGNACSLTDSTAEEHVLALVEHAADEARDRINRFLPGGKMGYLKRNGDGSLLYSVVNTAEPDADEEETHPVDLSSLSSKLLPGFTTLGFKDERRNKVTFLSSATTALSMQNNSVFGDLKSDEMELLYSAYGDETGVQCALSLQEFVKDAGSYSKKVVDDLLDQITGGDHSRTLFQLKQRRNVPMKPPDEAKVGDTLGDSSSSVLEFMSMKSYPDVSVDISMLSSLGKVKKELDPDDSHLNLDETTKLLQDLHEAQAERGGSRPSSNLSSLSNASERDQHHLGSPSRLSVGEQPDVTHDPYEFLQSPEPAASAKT
Description: SYO1 BRD9 NanoLuc Degradation Assay. Format: cell-based. The following applies: 6 hours; SYO-1 cells expressing 3×FLAG-NLuc-BRD9; top dose 1 μM; read-out: SYO1 BRD9-NanoLuc degradation IC50. In a few lines:
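NanoLuc signal, read by Nano-Glo luminescence after 6 h compound exposure, gives % inhibition against DMSO-treated cells (high control) and cells given 1 μM of a standard BRD9 degrader (low control). Test compounds ran as 10-point 3-fold series, top 1 μM final, in duplicate on SYO-1 cells stably expressing 3×FLAG-NLuc-BRD9.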

As for `COc1cc(-c2cn(C)c(=O)c3cnc(N(C)C)cc23)cc(OC)c1CN(C)CCOCCN1CCN(c2ccc3c(c2)C(=O)N(C2CCC(=O)NC2=O)C3=O)CC1` (stereo not shown) [Compound D21, 5-[4-(2-[2-[([4-[6-(dimethylamino)-2-methyl-1-oxo-2,7-naphthyridin-4-yl]-2,6-dimethoxyphenyl]methyl)(methyl)amino]ethoxy]ethyl)piperazin-1-yl]-2-(2,6-dioxopiperidin-3-yl)isoindole-1,3-dione], the IC50 in assay [1] is less than 10 nM. Further, the DC50 in assay [2] is less than 10 nM.

In the case of `CNc1cc2c(=O)n(C)cc(-c3cc(OC)c(CN4CCN(C(=O)CCCOc5cccc6c5C(=O)N(C5CCC(=O)NC5=O)C6=O)CC4)c(OC)c3)c2cn1` (stereo not shown) [Compound D17, 4-(4-(4-(2,6-dimethoxy-4-(2-methyl-7-(methylamino)-1-oxo-1,2-dihydro-2,6-naphthyridin-4-yl)benzyl)piperazin-1-yl)-4-oxobutoxy)-2-(2,6-dioxopiperidin-3-yl)isoindoline-1,3-dione formic acid], in assay [1], the IC50 is not below 10 nM. For the same compound, the DC50 in assay [2] was less than 10 nM.

As for `COc1cc(-c2cn(C)c(=O)c3cc(NCC(=O)NCCCCCOc4cccc5c4C(=O)N(C4CCC(=O)NC4=O)C5=O)ncc23)cc(OC)c1CN(C)C` (stereo not shown) [Compound D26, 2-[(8-[4-[(dimethylamino)methyl]-3,5-dimethoxyphenyl]-6-methyl-5-oxo-2,6-naphthyridin-3-yl)amino]-N-(5-[[2-(2,6-dioxopiperidin-3-yl)-1,3-dioxoisoindol-4-yl]oxy]pentyl) acetamide], the IC50 in assay [1] was not below 10 nM. Also, in assay [2], the DC50 was not below 10 nM.

`COc1cc(-c2cn(C)c(=O)c3cnc(NC(=O)CCOCCOCCNc4cccc5c4C(=O)N(C4CCC(=O)NC4=O)C5=O)cc23)cc(OC)c1CN(C)C` (stereo not shown) [Compound D11, N-(5-(4-((dimethylamino)methyl)-3,5-dimethoxyphenyl)-7-methyl-8-oxo-7,8-dihydro-2,7-naphthyridin-3-yl)-3-(2-(2-((2-(2,6-dioxopiperidin-3-yl)-1,3-dioxoisoindolin-4-yl)amino)ethoxy)ethoxy)propanamide formic acid] yielded an IC50 in assay [1] not below 10 nM. Further, the DC50 in assay [2] was not below 100 nM.

For `COc1cc(-c2cn(C)c(=O)c3cc(NCCCCCCCCNC(=O)COc4cccc5c4C(=O)N(C4CCC(=O)NC4=O)C5=O)ncc23)cc(OC)c1CN(C)C` (stereo not shown) [Compound D8, N-[8-[(8-[4-[(dimethylamino)methyl]-3,5-dimethoxyphenyl]-6-methyl-5-oxo-2,6-naphthyridin-3-yl)amino]octyl]-2-[[2-(2,6-dioxopiperidin-3-yl)-1,3-dioxoisoindol-4-yl]oxy]acetamide], in assay [1], the concentration for half-maximal inhibition (IC50) is not below 10 nM. For the same compound, in assay [2], the DC50 was not below 10 nM.

As for `COc1cc(-c2cn(C)c(=O)c3cnc(N(C)C)cc23)cc(OC)c1CN1CC[C@H]1CN(C)Cc1cccc2c1C(=O)N(C1CCC(=O)NC1=O)C2=O` (stereo partly drawn) [Compound D2, 4-(((((S)-1-(4-(6-(dimethylamino)-2-methyl-1-oxo-1,2-dihydro-2,7-naphthyridin-4-yl)-2,6-dimethoxybenzyl)azetidin-2-yl)methyl)(methyl)amino)methyl)-2-(2,6-dioxopiperidin-3-yl)isoindoline-1,3-dione], in assay [1], the IC50 was less than 10 nM. The DC50 in assay [2] was not below 100 nM.

For `COc1cc(-c2cn(C)c(=O)c3cnc(N(C)C)cc23)cc(OC)c1CN1CC(S(=O)(=O)NCCN2CCN(c3ccc4c(c3)C(=O)N(C3CCC(=O)NC3=O)C4=O)CC2)C1` (stereo not shown) [Compound D28, 1-([4-[6-(dimethylamino)-2-methyl-1-oxo-2,7-naphthyridin-4-yl]-2,6-dimethoxyphenyl]methyl)-N-(2-[4-[2-(2,6-dioxopiperidin-3-yl)-1,3-dioxoisoindol-5-yl]piperazin-1-yl]ethyl)azetidine-3-sulfonamide], in assay [1], the IC50 was less than 10 nM. For the same compound, the DC50 in assay [2] was less than 10 nM.

With `COc1cc(-c2cn(C)c(=O)c3cc(NCCOCCOCCNc4cccc5c4C(=O)N(C4CCC(=O)NC4=O)C5=O)ncc23)cc(OC)c1CN(C)C` (stereo not shown) [Compound D24, 4-[[2-(2-[2-[(8-[4-[(dimethylamino)methyl]-3,5-dimethoxyphenyl]-6-methyl-5-oxo-2,6-naphthyridin-3-yl)amino]ethoxy]ethoxy)ethyl]amino]-2-(2,6-dioxopiperidin-3-yl)isoindole-1,3-dione], the IC50 in assay [1] is not below 10 nM. Moreover, the DC50 in assay [2] was not below 10 nM.

Compound `COc1cc(-c2cn(C)c(=O)c3cnc(N(C)C)cc23)cc(OC)c1CN1CCC(CCN2CCN(c3ccc4c(c3)C(=O)N(C3CCC(=O)NC3=O)C4=O)CC2)CC1` (stereo not shown) [Compound D20, 5-(4-(2-(1-(4-(6-(dimethylamino)-2-methyl-1-oxo-1,2-dihydro-2,7-naphthyridin-4-yl)-2,6-dimethoxybenzyl)piperidin-4-yl)ethyl)piperazin-1-yl)-2-(2,6-dioxopiperidin-3-yl)isoindoline-1,3-dione formic acid] had an IC50 in assay [1] of less than 10 nM. Further, the DC50 in assay [2] is less than 10 nM.

The compound `COc1cc(-c2cn(C)c(=O)c3cnc(NCCCCCCCCNC(=O)COc4cccc5c4C(=O)N(C4CCC(=O)NC4=O)C5=O)cc23)cc(OC)c1CN(C)C` (stereo not shown) [Compound D5, N-[8-[(5-[4-[(dimethylamino)methyl]-3,5-dimethoxyphenyl]-7-methyl-8-oxo-2,7-naphthyridin-3-yl)amino]octyl]-2-[[2-(2,6-dioxopiperidin-3-yl)-1,3-dioxoisoindol-4-yl]oxy]acetamide formic acid] gave a 50% inhibitory concentration (IC50) in assay [1] not below 10 nM. The DC50 in assay [2] is not below 100 nM.

`COc1cc(-c2cn(C)c(=O)c3cnc(N(C)C)cc23)cc(OC)c1CN1CC(C(=O)NCCCCCOc2cccc3c2C(=O)N(C2CCC(=O)NC2=O)C3=O)C1` (stereo not shown) [Compound D1, 1-([4-[6-(dimethylamino)-2-methyl-1-oxo-1,2-dihydro-2,7-naphthyridin-4-yl]-2,6-dimethoxyphenyl]methyl)-N-(5-[[2-(2,6-dioxopiperidin-3-yl)-1,3-dioxo-2,3-dihydro-1H-isoindol-4-yl]oxy]pentyl)azetidine-3-carboxamide]: the IC50 in assay [1] is less than 10 nM. Further, in assay [2], the DC50 is less than 10 nM.

Regarding `COc1cc(-c2cn(C)c(=O)c3cnc(NCCCCCOc4cccc5c4C(=O)N(C4CCC(=O)NC4=O)C5=O)cc23)c(OC)cc1CN(C)C` (stereo not shown) [Compound D6, 4-((5-((5-(4-((dimethylamino)methyl)-2,5-dimethoxyphenyl)-7-methyl-8-oxo-7,8-dihydro-2,7-naphthyridin-3-yl)amino)pentyl)oxy)-2-(2,6-dioxopiperidin-3-yl)isoindoline-1,3-dione formic acid], the IC50 in assay [1] is not below 10 nM. In addition, the DC50 in assay [2] is not below 10 nM.

In assay [1], `COc1cc(-c2cn(C)c(=O)c3cnc(N(C)C)cc23)cc(OC)c1CN1CC(N(C)Cc2cccc3c2C(=O)N(C2CCC(=O)NC2=O)C3=O)C1` (stereo not shown) [Compound D3, 4-([[1-([4-[6-(dimethylamino)-2-methyl-1-oxo-2,7-naphthyridin-4-yl]-2,6-dimethoxyphenyl]methyl)azetidin-3-yl](methyl)amino]methyl)-2-(2,6-dioxopiperidin-3-yl)isoindole-1,3-dione formic acid] showed an IC50 of less than 10 nM. In assay [2], the DC50 is not below 10 nM.

Compound `CNc1cc2c(=O)n(C)cc(-c3cc(OC)c(CN4CC(C(=O)NCCCCCOc5cccc6c5C(=O)N(C5CCC(=O)NC5=O)C6=O)C4)c(OC)c3)c2cn1` (stereo not shown) [Compound D7, 1-([2,6-dimethoxy-4-[2-methyl-7-(methylamino)-1-oxo-2,6-naphthyridin-4-yl]phenyl]methyl)-N-(5-[[2-(2,6-dioxopiperidin-3-yl)-1,3-dioxoisoindol-4-yl]oxy]pentyl)azetidine-3-carboxamide formic acid] displayed an IC50 in assay [1] of less than 10 nM. Besides, the DC50 in assay [2] is less than 10 nM.
